Common to all, as to assay type: in vivo, human
Assay [1] is described as follows: 24 week randomised placebo-controlled double-blind clinical trial: body weight. To be noted: for ΔBW Week 24, Mean ± SD / ΔBW Week 24, Median (range): change from baseline (Day 0) to Week 24; for body weight change over the study: metformin-treated patients who received placebo; for BW Week 24, Mean ± SD / BW Week 24, Median (range): type 2 diabetes patients. As for the experimental part:
(§1) The safety and efficacy of methazolamide (40 mg administered twice daily) as a potential treatment for type 2 diabetes were evaluated in a 24 week, randomised, placebo-controlled double-blind clinical trial. The primary efficacy endpoint for the clinical trial was a reduction in HbA1c (ΔHbA1c) from baseline with methazolamide, relative to placebo, after 24 weeks of treatment. Secondary efficacy endpoints included reduction in body weight and improvements in cardiovascular measures such as blood pressure. The primary safety measurement was the effect of methazolamide, compared to placebo, on venous blood gas parameters; a measure of acidosis.
(§2) The clinical trial initially enrolled type 2 diabetes patients who were not treated with any anti-diabetic agent prior to entry into the trial (NAIVE) The trial was expanded to include participants who had been treated with metformin for at least 3 months and were on a stable metformin dose for at least 8 weeks prior to entering the trial (MET). The metformin dose was not altered throughout the trial.
(§3) Participants randomized into the clinical trial were administered either daily doses of methazolamide (40 mg b.i.d.) or placebo for 24 weeks. Methazolamide was taken as 1×30 mg capsule and 1×10 mg capsule per dose at breakfast and dinner. Placebo (microcrystalline cellulose) was administered in identical presentation. After an initial randomization visit to the clinic (Day 0), participants returned to the clinic at weeks 1, 2, 4, 8, 12, 18 and 24 for physical examinations, laboratory analyses, body composition measures, evaluation of glycemic parameters (fasting blood glucose, fasting insulin, HbA1c) and measurement of venous blood gas analysis.
(§4) Mean changes in body weight over time are depicted in FIG. 1.
Thus an unexpected and selective effect of methazolamide on the metformin-treated patients was observed.

A short description of assay [2]: 24 week randomised placebo-controlled double-blind clinical trial: body mass index. As to conditions: for ΔBMI Week 24, Mean ± SD / ΔBMI Week 24, Median (range): change from baseline (Day 0) to Week 24; for BMI Week 24, Mean ± SD / BMI Week 24, Median (range): type 2 diabetes patients. How it is done:
as §1, §2, §3, §4

A short description of assay [3]: 24 week randomised placebo-controlled double-blind clinical trial: HbA1c. To be noted: for ΔHbA1c Week 24, Mean ± SD / ΔHbA1c Week 24, Median (range): change from baseline (Day 0) to Week 24; for HbA1c Week 24, Mean ± SD / HbA1c Week 24, Median (range): type 2 diabetes patients, methazolamide 40 mg b.i.d. How it is done:
as §1, §2, §3, §4

[4] abbreviates: difference to the matching placebo group, Week 24.

Experimental findings from patent publication US20150174108A1, “METHOD OF WEIGHT REDUCTION” (priority 2012, published 2015) are described below.

“Also recorded” adds a separate entry of the source.

In the case of `CN(C)C(=N)NC(=N)N` [Placebo + Met, metformin], in assay [1], the “ΔBW Week 24, Mean ± SD” value is -0.3 ± 1.7 kg; the “ΔBW Week 24, Median (range)” value is recorded as −0.5 (−2.8, +3.9) kg; the “BW Week 24, Mean ± SD” value stood at 90.3 ± 15.9 kg; the “BW Week 24, Median (range)” value is recorded as 87.6 (68.5, 133.6) kg. Moreover, in assay [1] (24 weeks), the “body weight change over the study” value is listed as “largely stable body weight”. Besides, in assay [1] (24 weeks, listed as metformin and placebo), the “body weight change over the study” value is given as “did not significantly change”. Also, in assay [2], the “ΔBMI Week 24, Mean ± SD” value was −0.06 ± 0.58 kg/m^2; the “ΔBMI Week 24, Median (range)” value was −0.2 (−0.8, +1.5) kg/m^2; the “BMI Week 24, Mean ± SD” value was 29.7 ± 4.7 kg/m^2; the “BMI Week 24, Median (range)” value is 29.1 (23.6-39.5) kg/m^2. Besides, in assay [3], the “ΔHbA1c Week 24, Mean ± SD” value is −0.04 ± 0.71%; the “ΔHbA1c Week 24, Median (range)” value is listed as −0.2 (−0.9, +1.4) %; the “HbA1c Week 24, Mean ± SD” value is 7.50 ± 0.84%; the “HbA1c Week 24, Median (range)” value is 7.3 (6.6, 9.8) %.
On to `CC(=O)/N=c1/sc(S(N)(=O)=O)nn1C` [methazolamide], for which, in assay [1] (Naïve patients not using metformin, 24 weeks), the “effect on body weight versus placebo” value is on record as “no differences were observed; also recorded: No such additional effect”. For the same compound, in assay [1], the “ΔBW Week 24, Mean ± SD” value was -2.3 ± 2.4 kg; the “ΔBW Week 24, Median (range)” value is recorded as −1.8 (−9.8, +1.3) kg; the “BW Week 24, Mean ± SD” value is listed as 90.7 ± 14.0 kg; the “BW Week 24, Median (range)” value is 95.3 (63.3, 106.0) kg. In addition, the “ΔBW Week 24, MTZ − Placebo” value in assay [1] (setting [4]) is recorded as “+0.8 kg”. Moreover, in assay [1] (metformin-treated patients further treated with methazolamide), the “average body weight lost over the 24 week period” value is listed as 2.2 kg. For the same compound, the “body weight lost as share of starting body weight” value in assay [1] (metformin-treated patients further treated with methazolamide, 24 weeks) is recorded as 2%. Further, in assay [2], the “ΔBMI Week 24, Mean ± SD” value is listed as −0.77 ± 0.79 kg/m^2; the “ΔBMI Week 24, Median (range)” value is listed as −0.6 (−3.1, +0.5) kg/m^2; the “BMI Week 24, Mean ± SD” value turned out to be 31.5 ± 5.1 kg/m^2; the “BMI Week 24, Median (range)” value is reported as 32.0 (24.7-39.0) kg/m^2. Further, in assay [2] (setting [4]), the “ΔBMI Week 24, MTZ − Placebo” value is reported as “+0.4 kg/m^2”. In assay [3], the “ΔHbA1c Week 24, Mean ± SD” value was −0.26 ± 0.72%; the “ΔHbA1c Week 24, Median (range)” value is −0.3 (−2.1, +0.8) %; the “HbA1c Week 24, Mean ± SD” value was 6.88 ± 0.63%; the “HbA1c Week 24, Median (range)” value is recorded as 7.0 (6.1, 8.0) %. The “ΔHbA1c Week 24, MTZ − Placebo” value in assay [3] (setting [4]) is listed as −0.1%.
